Measurements taken from US8580794B2 (AbbVie Inc., priority 2009, dated 2013).

Molecular target: GST-Bc1-2 (Homo sapiens, UniProt P10415)
Assay: Time Resolved-Fluorescence Resonance Energy Transfer (TR-FRET) Bcl-2 binding assay with F-Bak peptide probe
Settings: GST-Bcl-2 1 nM, F-Bak probe 100 nM, Tb-anti-GST 1 nM; '<' = below limit of detection; read-out: TR-FRET Bcl-2 Binding Ki

Sequence of GST-Bc1-2 (P10415 whole entry): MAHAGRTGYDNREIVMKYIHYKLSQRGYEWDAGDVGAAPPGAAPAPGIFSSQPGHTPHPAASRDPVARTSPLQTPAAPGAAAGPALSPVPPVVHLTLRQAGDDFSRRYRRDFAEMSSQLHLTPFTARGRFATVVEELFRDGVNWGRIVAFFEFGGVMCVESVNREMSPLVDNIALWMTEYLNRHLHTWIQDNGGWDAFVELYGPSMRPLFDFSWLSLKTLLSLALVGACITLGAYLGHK

SMILES | Ki
CC1(C)CCC(CN2CCN(c3ccc(C(=O)NS(=O)(=O)c4ccc(NCC5CNCCO5)c([N+](=O)[O-])c4)c(Oc4cnc5[nH]ccc5c4)c3)CC2)=C(c2ccc(Cl)cc2)C1 (stereo not drawn) [Example 113, 4-(4-{[2-(4-chlorophenyl)-4,4-dimethylcyclohex-1-en-1-yl]methyl}piperazin-1-yl)-N-({4-[(morpholin-2-ylmethyl)amino]-3-nitrophenyl}sulfonyl)-2-(1H-pyrrolo[2,3-b]pyridin-5-yloxy)benzamide] | < 0.01 nM
CC1(C)CCC(CN2CCN(c3ccc(C(=O)NS(=O)(=O)c4ccc(NCC5CCOC5)c([N+](=O)[O-])c4)c(Oc4cnc5[nH]ccc5c4)c3)CC2)=C(c2ccc(Cl)cc2)C1 (stereo not drawn) [Example 114, 4-(4-{[2-(4-chlorophenyl)-4,4-dimethylcyclohex-1-en-1-yl]methyl}piperazin-1-yl)-N-({3-nitro-4-[(tetrahydrofuran-3-ylmethyl)amino]phenyl}sulfonyl)-2-(1H-pyrrolo[2,3-b]pyridin-5-yloxy)benzamide] | < 0.01 nM
CC1(C)CCC(CN2CCN(c3ccc(C(=O)NS(=O)(=O)c4ccc(NC5CN(C6CCOCC6)C5)c([N+](=O)[O-])c4)c(Oc4cnc5[nH]ccc5c4)c3)CC2)=C(c2ccc(Cl)cc2)C1 [Example 116, 4-(4-{[2-(4-chlorophenyl)-4,4-dimethylcyclohex-1-en-1-yl]methyl}piperazin-1-yl)-N-({3-nitro-4-[(1-tetrahydro-2H-pyran-4-ylazetidin-3-yl)amino]phenyl}sulfonyl)-2-(1H-pyrrolo[2,3-b]pyridin-5-yloxy)benzamide] | < 0.01 nM
CC1(C)CCC(CN2CCN(c3ccc(C(=O)NS(=O)(=O)c4ccc(NC5CN(C6CCOC6)C5)c([N+](=O)[O-])c4)c(Oc4cnc5[nH]ccc5c4)c3)CC2)=C(c2ccc(Cl)cc2)C1 (stereo not drawn) [Example 117, 4-(4-{[2-(4-chlorophenyl)-4,4-dimethylcyclohex-1-en-1-yl]methyl}piperazin-1-yl)-N-({3-nitro-4-[(1-tetrahydrofuran-3-ylazetidin-3-yl)amino]phenyl}sulfonyl)-2-(1H-pyrrolo[2,3-b]pyridin-5-yloxy)benzamide] | < 0.01 nM
CC1(C)CCC(CN2CCN(c3ccc(C(=O)NS(=O)(=O)c4ccc(NC[C@H]5CCN(C6CCOCC6)C5)c([N+](=O)[O-])c4)c(Oc4cnc5[nH]ccc5c4)c3)CC2)=C(c2ccc(Cl)cc2)C1 [Example 118, 4-(4-{[2-(4-chlorophenyl)-4,4-dimethylcyclohex-1-en-1-yl]methyl}piperazin-1-yl)-N-{[3-nitro-4-({[(3R)-1-tetrahydro-2H-pyran-4-ylpyrrolidin-3-yl]methyl}amino)phenyl]sulfonyl}-2-(1H-pyrrolo[2,3-b]pyridin-5-yloxy)benzamide] | < 0.01 nM
CC1(C)CCC(c2ccc(Cl)cc2)=C(CN2CCN(c3ccc(C(=O)NS(=O)(=O)c4ccc(OCC5(F)CCOCC5)c([N+](=O)[O-])c4)c(Oc4cnc5[nH]ccc5c4)c3)CC2)C1 [Example 119, 4-(4-{[2-(4-chlorophenyl)-5,5-dimethylcyclohex-1-en-1-yl]methyl}piperazin-1-yl)-N-({4-[(4-fluorotetrahydro-2H-pyran-4-yl)methoxy]-3-nitrophenyl}sulfonyl)-2-(1H-pyrrolo[2,3-b]pyridin-5-yloxy)benzamide] | < 0.01 nM
CO[C@H]1CC[C@@H](COc2ccc(S(=O)(=O)NC(=O)c3ccc(N4CCN(CC5=C(c6ccc(Cl)cc6)CC(C)(C)CC5)CC4)cc3Oc3cnc4[nH]ccc4c3)cc2[N+](=O)[O-])CC1 [Example 121, 2-(1H-pyrrolo[2,3-b]pyridin-5-yloxy)-4-(4-((2-(4-chlorophenyl)-4,4-dimethylcyclohex-1-enyl)methyl)piperazin-1-yl)-N-(4-((cis-4-methoxycyclohexyl)methoxy)-3-nitrophenylsulfonyl)benzamide] | < 0.01 nM
CC1(C)CCC(CN2CCN(c3ccc(C(=O)NS(=O)(=O)c4ccc(N[C@H]5CC[C@@H](NC6CC6)CC5)c([N+](=O)[O-])c4)c(Oc4cnc5[nH]ccc5c4)c3)CC2)=C(c2ccc(Cl)cc2)C1 [Example 122, Cis-4-(4-{[2-(4-chlorophenyl)-4,4-dimethylcyclohex-1-en-1-yl]methyl}piperazin-1-yl)-N-[(4-{[4-(cyclopropylamino)cyclohexyl]amino}-3-nitrophenyl)sulfonyl]-2-(1H-pyrrolo[2,3-b]pyridin-5-yloxy)benzamide] | < 0.01 nM
CC1(C)CCC(CN2CCN(c3ccc(C(=O)NS(=O)(=O)c4ccc(N[C@H]5CC[C@H](NC6CCOCC6)CC5)c([N+](=O)[O-])c4)c(Oc4cnc5[nH]ccc5c4)c3)CC2)=C(c2ccc(Cl)cc2)C1 [Example 123, Trans-4-(4-{[2-(4-chlorophenyl)-4,4-dimethylcyclohex-1-en-1-yl]methyl}piperazin-1-yl)-N-[(3-nitro-4-{[4-(tetrahydro-2H-pyran-4-ylamino)cyclohexyl]amino}phenyl)sulfonyl]-2-(1H-pyrrolo[2,3-b]pyridin-5-yloxy)benzamide] | < 0.01 nM
CC1(C)CCC(CN2CCN(c3ccc(C(=O)NS(=O)(=O)c4cnc(O[C@H]5CC[C@H](N6CCOCC6)CC5)c(Br)c4)c(Oc4cnc5[nH]ccc5c4)c3)CC2)=C(c2ccc(Cl)cc2)C1 [Example 124, Trans-N-({5-bromo-6-[(4-morpholin-4-ylcyclohexyl)oxy]pyridin-3-yl}sulfonyl)-4-(4-{[2-(4-chlorophenyl)-4,4-dimethylcyclohex-1-en-1-yl]methyl}piperazin-1-yl)-2-(1H-pyrrolo[2,3-b]pyridin-5-yloxy)benzamide] | < 0.01 nM
CO[C@H]1CC[C@H](COc2ccc(S(=O)(=O)NC(=O)c3ccc(N4CCN(CC5=C(c6ccc(Cl)cc6)CC(C)(C)CC5)CC4)cc3Oc3cnc4[nH]ccc4c3)cc2[N+](=O)[O-])CC1 [Example 125, Trans-4-(4-{[2-(4-chlorophenyl)-4,4-dimethylcyclohex-1-en-1-yl]methyl}piperazin-1-yl)-N-({4-[(4-methoxycyclohexyl)methoxy]-3-nitrophenyl}sulfonyl)-2-(1H-pyrrolo[2,3-b]pyridin-5-yloxy)benzamide] | < 0.01 nM
CC1(C)CCC(CN2CCN(c3ccc(C(=O)NS(=O)(=O)c4ccc(OCC5(F)CCN(C(=O)OC(C)(C)C)CC5)c([N+](=O)[O-])c4)c(Oc4cnc5[nH]ccc5c4)c3)CC2)=C(c2ccc(Cl)cc2)C1 [Example 126, tert-butyl 4-{[4-({[4-(4-{[2-(4-chlorophenyl)-4,4-dimethylcyclohex-1-en-1-yl]methyl}piperazin-1-yl)-2-(1H-pyrrolo[2,3-b]pyridin-5-yloxy)benzoyl]amino}sulfonyl)-2-nitrophenoxy]methyl}-4-fluoropiperidine-1-carboxylate] | < 0.01 nM
CC1(C)CCC(CN2CCN(c3ccc(C(=O)NS(=O)(=O)c4ccc(OCC5(F)CCNCC5)c([N+](=O)[O-])c4)c(Oc4cnc5[nH]ccc5c4)c3)CC2)=C(c2ccc(Cl)cc2)C1 [Example 127, 4-(4-{[2-(4-chlorophenyl)-4,4-dimethylcyclohex-1-en-1-yl]methyl}piperazin-1-yl)-N-({4-[(4-fluoropiperidin-4-yl)methoxy]-3-nitrophenyl}sulfonyl)-2-(1H-pyrrolo[2,3-b]pyridin-5-yloxy)benzamide] | < 0.01 nM
CC1(C)CCC(CN2CCN(c3ccc(C(=O)NS(=O)(=O)c4ccc(N[C@H]5CC[C@H](N6CCN(C7CCOCC7)CC6)CC5)c([N+](=O)[O-])c4)c(Oc4cnc5[nH]ccc5c4)c3)CC2)=C(c2ccc(Cl)cc2)C1 [Example 128, Trans-4-(4-{[2-(4-chlorophenyl)-4,4-dimethylcyclohex-1-en-1-yl]methyl}piperazin-1-yl)-N-[(3-nitro-4-{[4-(4-tetrahydro-2H-pyran-4-ylpiperazin-1-yl)cyclohexyl]amino}phenyl)sulfonyl]-2-(1H-pyrrolo[2,3-b]pyridin-5-yloxy)benzamide] | < 0.01 nM
CC1(C)CCC(CN2CCN(c3ccc(C(=O)NS(=O)(=O)c4ccc(OCC5CCN(C(CF)CF)CC5)c([N+](=O)[O-])c4)c(Oc4cnc5[nH]ccc5c4)c3)CC2)=C(c2ccc(Cl)cc2)C1 [Example 129, 4-(4-{[2-(4-chlorophenyl)-4,4-dimethylcyclohex-1-en-1-yl]methyl}piperazin-1-yl)-N-{[4-({1-[2-fluoro-1-(fluoromethyl)ethyl]piperidin-4-yl}methoxy)-3-nitrophenyl]sulfonyl}-2-(1H-pyrrolo[2,3-b]pyridin-5-yloxy)benzamide] | 0.002 nM
CC1(C)CCC(CN2CCN(c3ccc(C(=O)NS(=O)(=O)c4ccc(N[C@@H]5CCN(C6CCOCC6)C5)c([N+](=O)[O-])c4)c(Oc4cnc5[nH]ccc5c4)c3)CC2)=C(c2ccc(Cl)cc2)C1 [Example 130, 4-(4-{[2-(4-chlorophenyl)-4,4-dimethylcyclohex-1-en-1-yl]methyl}piperazin-1-yl)-N-[(3-nitro-4-{[(3R)-1-tetrahydro-2H-pyran-4-ylpyrrolidin-3-yl]amino}phenyl)sulfonyl]-2-(1H-pyrrolo[2,3-b]pyridin-5-yloxy)benzamide] | < 0.01 nM
CC1(C)CCC(CN2CCN(c3ccc(C(=O)NS(=O)(=O)c4ccc(N[C@@H]5CCN(C6CCOC(C)(C)C6)C5)c([N+](=O)[O-])c4)c(Oc4cnc5[nH]ccc5c4)c3)CC2)=C(c2ccc(Cl)cc2)C1 (stereo partly drawn) [Example 131, 4-(4-{[2-(4-chlorophenyl)-4,4-dimethylcyclohex-1-en-1-yl]methyl}piperazin-1-yl)-N-[(4-{[(3R)-1-(2,2-dimethyltetrahydro-2H-pyran-4-yl)pyrrolidin-3-yl]amino}-3-nitrophenyl)sulfonyl]-2-(1H-pyrrolo[2,3-b]pyridin-5-yloxy)benzamide] | < 0.01 nM
CC1(C)CCC(CN2CCN(c3ccc(C(=O)NS(=O)(=O)c4ccc(N[C@H]5CCN(C6CCOCC6)C5)c([N+](=O)[O-])c4)c(Oc4cnc5[nH]ccc5c4)c3)CC2)=C(c2ccc(Cl)cc2)C1 [Example 132, 4-(4-{[2-(4-chlorophenyl)-4,4-dimethylcyclohex-1-en-1-yl]methyl}piperazin-1-yl)-N-[(3-nitro-4-{[(3S)-1-tetrahydro-2H-pyran-4-ylpyrrolidin-3-yl]amino}phenyl)sulfonyl]-2-(1H-pyrrolo[2,3-b]pyridin-5-yloxy)benzamide] | < 0.01 nM
